In patent US9115137B2, “2,3,4,5-tetrahydro-1H-pyrido[4,3-B]indole compounds and methods of use thereof” (priority 2008, dated 2015):

What was measured:
[1] = target: T1, human recombinant serotonin (5-Hydroxytryptamine) 5-HT6 receptor (Homo sapiens, UniProt P50406); experiment: Serotonin 5-HT6 radioligand binding ([3H]LSD); conditions: compound at 1 μM; HeLa cells; read-out: Serotonin (1 μM) 5-HT6, percent inhibition of specific binding
T1 construct: expressed in transfected cells; host or cells: human HeLa cells
Experimental: To evaluate in radioligand binding assays the activity of compounds of the invention, human recombinant serotonin (5-Hydroxytryptamine) 5-HT6 receptor expressed in human HeLa cells (Monsma, F. J. Jr. et al., Mol. Pharmacol. 43:320, 1993) in a modified Tris-HCl buffer (50 mM Tris-HCl, pH 7.4, 150 mM NaCl, 2 mM Ascorbic Acid, 0.001% BSA) was used. Compounds of the invention were incubated with 1.5 nM [3H]Lysergic acid diethylamide (LSD) for 120 minutes at 37° C. Non-specific binding was estimated in the presence of 5 μM Serotonin (5-HT). Receptor proteins were filtered and washed, the filters were then counted to determine [3H]LSD specifically bound. Compounds were screened at 1 μM or lower, using 1% DMSO as vehicle. Biochemical assay results are presented as the percent inhibition of specific binding in Table 7.

[2] = target: T2, human recombinant adrenergic α2A receptor (Homo sapiens, UniProt P08913); experiment: Adrenergic α2A radioligand binding ([3H]MK-912); conditions: compound at 1 μM; insect Sf9 cells; read-out: Adrenergic (1 μM) α2A, percent inhibition of specific binding
T2 construct: expressed in transfected cells; host or cells: insect Sf9 cells
T2 sequence (P08913 1-465): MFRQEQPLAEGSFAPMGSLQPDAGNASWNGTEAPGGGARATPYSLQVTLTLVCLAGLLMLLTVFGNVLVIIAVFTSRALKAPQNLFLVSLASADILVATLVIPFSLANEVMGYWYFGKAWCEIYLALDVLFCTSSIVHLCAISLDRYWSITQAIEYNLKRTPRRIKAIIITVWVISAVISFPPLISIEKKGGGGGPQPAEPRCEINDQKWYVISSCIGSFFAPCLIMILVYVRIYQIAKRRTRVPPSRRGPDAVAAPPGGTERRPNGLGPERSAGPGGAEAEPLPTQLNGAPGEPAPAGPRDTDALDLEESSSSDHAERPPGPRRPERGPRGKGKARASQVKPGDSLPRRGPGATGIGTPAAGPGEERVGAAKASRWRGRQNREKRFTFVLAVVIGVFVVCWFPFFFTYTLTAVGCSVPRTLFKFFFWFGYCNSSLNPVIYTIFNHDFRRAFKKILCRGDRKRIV
Experimental: To evaluate in radioligand binding assays the activity of compounds of the invention, human recombinant adrenergic α2A receptor expressed in insect Sf9 cells (Uhlen S et al. J Pharmacol Exp Ther. 271:1558, 1994) in a modified Tris-HCl buffer (50 mM Tris-HCl, pH 7.4, 12.5 mM MgCl2, 2 mM EDTA) was used. Compounds of invention were incubated with 1 nM [^3H]MK-912 for 60 minutes at 25° C. MK912 is (2S-trans)-1,3,4,5′,6,6′,7,12b-octahydro-1′,3′-dimethyl-spiro[2H-benzofuro[2,3-a]quinolizine-2,4′(1′H)-pyrimidin]-2′(3′H)-one hydrochloride Non-specific binding was estimated in the presence of 10 μM WB-4101 (2-(2,6-Dimethoxyphenoxyethyl)aminomethyl-1,4-benzodioxane hydrochloride). Receptor proteins were filtered and washed, the filters were then counted to determine [^3H]MK-912 specifically bound. Compounds were screened at 1 μM or lower, using 1% DMSO as vehicle. Biochemical assay results are presented as the percent inhibition of specific binding in Table 6.

[3] = target: T3, human recombinant dopamine D2L receptor (Homo sapiens, UniProt P14416); experiment: Dopamine D2L radioligand binding ([3H]Spiperone); conditions: compound at 1 μM; CHO cells; read-out: Dopamine (1 μM) D2L, percent inhibition of specific binding
T3 construct: expressed in transfected cells; host or cells: CHO cells
Experimental: To evaluate in radioligand binding assays the activity of compounds of the invention, human recombinant dopamine D2L receptor expressed in Chinese hamster ovary (CHO) cells (Grandy, D. K. et al. Proc. Natl. Acad. Sci. USA. 86:9762, 1989; Hayes, G. et al., Mol. Endocrinol. 6:920, 1992) in a modified Tris-HCl buffer (50 mM Tris-HCl, pH 7.4, 1.4 mM Ascorbic Acid, 0.001% BSA, 150 mM NaCl) was used. Compounds of the invention were incubated with 0.16 nM [^3H]Spiperone for 120 minutes at 25° C. Non-specific binding was estimated in the presence of 10 μM Haloperidol. Receptor proteins were filtered and washed, the filters were then counted to determine [^3H]Spiperone specifically bound. Compounds were screened at 1 μM or lower, using 1% DMSO as vehicle. Biochemical assay results are presented as the percent inhibition of specific binding in Table 6.

[4] = target: T4, human recombinant adrenergic α2B receptor (Homo sapiens, UniProt P18089); experiment: Adrenergic α2B radioligand binding ([3H]Rauwolscine); conditions: compound at 1 μM; CHO-K1 cells; read-out: Adrenergic (1 μM) α2B, percent inhibition of specific binding
T4 construct: expressed in transfected cells; host or cells: CHO-K1 cells
T4 sequence (P18089 1-450): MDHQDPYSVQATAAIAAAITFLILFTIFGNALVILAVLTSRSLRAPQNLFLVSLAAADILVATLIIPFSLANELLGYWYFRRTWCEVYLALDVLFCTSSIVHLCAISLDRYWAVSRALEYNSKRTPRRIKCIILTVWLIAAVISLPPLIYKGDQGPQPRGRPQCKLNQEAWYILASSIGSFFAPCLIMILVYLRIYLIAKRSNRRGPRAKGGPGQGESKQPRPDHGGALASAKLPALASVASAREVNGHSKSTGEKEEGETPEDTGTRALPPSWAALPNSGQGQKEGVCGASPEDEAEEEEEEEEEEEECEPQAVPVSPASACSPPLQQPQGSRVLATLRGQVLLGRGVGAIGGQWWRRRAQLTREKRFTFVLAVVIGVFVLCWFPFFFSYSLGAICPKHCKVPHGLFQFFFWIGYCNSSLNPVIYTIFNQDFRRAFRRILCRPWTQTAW
Experimental: To evaluate in radioligand binding assays the activity of compounds of the invention, human recombinant adrenergic α2B receptor expressed in Chinese hamster ovary (CHO-K1) cells (Uhlen S et al. Eur. J. Pharmacol. 343(1):93, 1998) in a modified Tris-HCl buffer (50 mM Tris-HCl, pH 7.4, 12.5 mM MgCl2, 1 mM EDTA, 0.2% BSA) was used. Compounds of the invention were incubated with 2.5 nM [3H]Rauwolscine for 60 minutes at 25° C. Non-specific binding was estimated in the presence of 10 μM Prozosin. Receptor proteins were filtered and washed, the filters were then counted to determine [^3H]Rauwolscine specifically bound. Compounds were screened at 1 μM or lower, using 1% DMSO as vehicle. Biochemical assay results are presented as the percent inhibition of specific binding in Table 6.

T3 sequence (P14416 whole entry): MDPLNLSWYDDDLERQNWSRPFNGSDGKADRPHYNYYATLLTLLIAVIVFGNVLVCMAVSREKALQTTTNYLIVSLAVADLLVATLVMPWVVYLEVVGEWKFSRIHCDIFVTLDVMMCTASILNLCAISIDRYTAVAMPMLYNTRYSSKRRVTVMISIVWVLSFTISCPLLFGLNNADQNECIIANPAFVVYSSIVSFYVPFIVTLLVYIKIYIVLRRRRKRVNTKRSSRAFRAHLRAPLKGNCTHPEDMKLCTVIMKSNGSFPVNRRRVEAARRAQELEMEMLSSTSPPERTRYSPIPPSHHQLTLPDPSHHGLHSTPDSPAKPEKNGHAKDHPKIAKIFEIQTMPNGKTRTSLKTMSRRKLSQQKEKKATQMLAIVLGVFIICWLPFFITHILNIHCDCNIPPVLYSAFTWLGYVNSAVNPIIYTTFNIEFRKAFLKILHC
T1 sequence (P50406 whole entry): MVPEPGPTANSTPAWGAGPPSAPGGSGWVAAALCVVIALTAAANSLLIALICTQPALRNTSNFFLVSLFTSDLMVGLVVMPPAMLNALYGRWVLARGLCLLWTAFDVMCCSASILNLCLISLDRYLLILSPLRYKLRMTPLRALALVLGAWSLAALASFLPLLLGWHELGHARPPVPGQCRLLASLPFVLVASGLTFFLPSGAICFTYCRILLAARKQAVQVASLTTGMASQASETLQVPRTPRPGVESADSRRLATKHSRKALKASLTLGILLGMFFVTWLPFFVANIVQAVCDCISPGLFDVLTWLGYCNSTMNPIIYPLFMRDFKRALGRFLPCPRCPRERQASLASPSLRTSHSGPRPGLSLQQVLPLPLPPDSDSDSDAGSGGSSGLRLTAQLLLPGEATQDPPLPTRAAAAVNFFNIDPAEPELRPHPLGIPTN

Cc1ccc2c(c1)c1c(n2CCC(=O)Nc2ccccc2)CCN(C)C1 [Compound 29]
inhibition at 1 µM [1]: 43%
inhibition at 1 µM [2]: 78%
inhibition at 1 µM [3]: 2%
inhibition at 1 µM [4]: 79%

CN1CCc2c(c3cc(Cl)ccc3n2CCC(=O)NC2CCCC2)C1 [Compound 31, 3-(8-chloro-1,2,3,4-tetrahydro-2-methylpyrido[4,3-b]indol-5-yl)-N-cyclopentylpropanamide]
inhibition at 1 µM [1]: 34%
inhibition at 1 µM [2]: 37%
inhibition at 1 µM [3]: 9%
inhibition at 1 µM [4]: 91%

C#CCn1c2c(c3cc(C)ccc31)CN(C)CC2 [CD73, 2,8-dimethyl-5-(prop-2-ynyl)-2,3,4,5-tetrahydro-1H-pyrido[4,3-b]indole]
inhibition at 1 µM [1]: 83%
inhibition at 1 µM [2]: 70%
inhibition at 1 µM [4]: 101%

CCNC(=O)Cn1c2c(c3cc(C)ccc31)CN(C)CC2 [Compound 22, N-ethyl-2-(1,2,3,4-tetrahydro-2,8-dimethylpyrido[4,3-b]indol-5-yl)acetamide]
inhibition at 1 µM [1]: 27%
inhibition at 1 µM [2]: 40%
inhibition at 1 µM [3]: -2%
inhibition at 1 µM [4]: 58%

CN1CCc2c(c3cc(Cl)ccc3n2CCC(=O)OCC2CCCCC2)C1 [Compound 20, cyclohexylmethyl 3-(8-chloro-1,2,3,4-tetrahydro-2-methylpyrido[4,3-b]indol-5-yl)propanoate]
inhibition at 1 µM [1]: 93%
inhibition at 1 µM [2]: 95%
inhibition at 1 µM [3]: 19%
inhibition at 1 µM [4]: 103%

Cc1ccc2c(c1)c1c(n2CC(N)=O)CCN(C)C1 [Compound 64, 2-(1,2,3,4-tetrahydro-2,8-dimethylpyrido[4,3-b]indol-5-yl)acetamide]
inhibition at 1 µM [1]: 5%
inhibition at 1 µM [2]: 9%
inhibition at 1 µM [3]: 2%
inhibition at 1 µM [4]: 40%

CN1CCc2c(c3cc(Cl)ccc3n2CC(=O)N(C)C)C1 [Compound 48, 2-(8-chloro-1,2,3,4-tetrahydro-2-methylpyrido[4,3-b]indol-5-yl)-N,N-dimethylacetamide]
inhibition at 1 µM [1]: 12%
inhibition at 1 µM [2]: 20%
inhibition at 1 µM [3]: -6%
inhibition at 1 µM [4]: 13%

Cc1ccc2c(c1)c1c(n2CCNC(=O)c2ccncc2C)CCN(C)C1 [Compound 69, N-(2-(1,2,3,4-tetrahydro-2,8-dimethylpyrido[4,3-b]indol-5-yl)ethyl)-3-methylpyridine-4-carboxamide]
inhibition at 1 µM [1]: -4%
inhibition at 1 µM [2]: 25%
inhibition at 1 µM [3]: 4%
inhibition at 1 µM [4]: 39%

CC(C)OC(=O)Cn1c2c(c3cc(Cl)ccc31)CN(C)CC2 [Compound 11, isopropyl 2-(8-chloro-1,2,3,4-tetrahydro-2-methylpyrido[4,3-b]indol-5-yl)acetate]
inhibition at 1 µM [1]: 66%
inhibition at 1 µM [2]: 25%
inhibition at 1 µM [3]: 10%
inhibition at 1 µM [4]: 69%

CCOC(=O)CCn1c2c(c3cc(C)ccc31)CN(C)CC2 [CD1, ethyl 3-(1,2,3,4-tetrahydro-2,8-dimethylpyrido[4,3-b]indol-5-yl)propanoate]
inhibition at 1 µM [1]: 78%
inhibition at 1 µM [2]: 62%
inhibition at 1 µM [4]: 95%

CCNC(=O)CCn1c2c(c3cc(C)ccc31)CN(C)CC2 [Compound 2, N-ethyl-3-(1,2,3,4-tetrahydro-2,8-dimethylpyrido[4,3-b]indol-5-yl)propanamide]
inhibition at 1 µM [1]: 19%
inhibition at 1 µM [2]: 35%
inhibition at 1 µM [4]: 55%

Cc1ccc2c(c1)c1c(n2CCC(=O)NC2CCCCC2)CCN(C)C1 [Compound 3, N-cyclohexyl-3-(1,2,3,4-tetrahydro-2,8-dimethylpyrido[4,3-b]indol-5-yl)propanamide]
inhibition at 1 µM [1]: 19%
inhibition at 1 µM [2]: 14%
inhibition at 1 µM [4]: 80%

CCNC(=O)CCCn1c2c(c3cc(C)ccc31)CN(C)CC2 [Compound 6, N-ethyl-4-(1,2,3,4-tetrahydro-2,8-dimethylpyrido[4,3-b]indol-5-yl)butanamide]
inhibition at 1 µM [1]: 23%
inhibition at 1 µM [2]: 59%
inhibition at 1 µM [4]: 36%

Cc1ccc2c(c1)c1c(n2CCC(=O)NC2CCCC2)CCN(C)C1 [Compound 4, N-cyclopentyl-3-(1,2,3,4-tetrahydro-2,8-dimethylpyrido[4,3-b]indol-5-yl)propanamide]
inhibition at 1 µM [1]: 28%
inhibition at 1 µM [2]: 45%
inhibition at 1 µM [4]: 93%

CCOC(=O)CCCn1c2c(c3cc(C)ccc31)CN(C)CC2 [Compound 5, ethyl 4-(1,2,3,4-tetrahydro-2,8-dimethylpyrido[4,3-b]indol-5-yl)butanoate]
inhibition at 1 µM [1]: 88%
inhibition at 1 µM [2]: 74%
inhibition at 1 µM [4]: 98%

Cc1ccc2c(c1)c1c(n2CCNC(=O)OCC(Cl)(Cl)Cl)CCN(C)C1 [Compound 8, 2,2,2-trichloroethyl 2-(1,2,3,4-tetrahydro-2,8-dimethylpyrido[4,3-b]indol-5-yl)ethylcarbamate]
inhibition at 1 µM [1]: 83%
inhibition at 1 µM [2]: 90%
inhibition at 1 µM [4]: 102%

CNC(=O)CCn1c2c(c3cc(C)ccc31)CN(C)CC2 [Compound 1, 3-(1,2,3,4-tetrahydro-2,8-dimethylpyrido[4,3-b]indol-5-yl)-N-methylpropanamide]
inhibition at 1 µM [1]: 8%
inhibition at 1 µM [2]: 18%
inhibition at 1 µM [4]: 51%

Cc1ccc2c(c1)c1c(n2CC#N)CCN(C)C1 [CD61, 2-(1,2,3,4-tetrahydro-2,8-dimethylpyrido[4,3-b]indol-5-yl)acetonitrile]
inhibition at 1 µM [1]: 68%
inhibition at 1 µM [2]: 73%
inhibition at 1 µM [4]: 89%
